{"source": "paper PMC8799717", "about": "“Pharmacological targeting PIKfyve and tubulin as an effective treatment strategy for double-hit lymphoma” (Cell Death Discovery, 2022)", "assay_in_all_cases": "biochemical", "parameters_in_all_cases": "KINOMEscan active-site-directed competition binding panel, 468 kinases, percent of DMSO control at 1 uM", "conditions_in_all_cases": "KINOMEscan binding, percent of DMSO control; read-out: Ctrl%", "key": {"MKNK2": {"molecular_target": "MKNK2 (Homo sapiens, UniProt Q9HBH9)", "sequence (Q9HBH9 whole entry)": "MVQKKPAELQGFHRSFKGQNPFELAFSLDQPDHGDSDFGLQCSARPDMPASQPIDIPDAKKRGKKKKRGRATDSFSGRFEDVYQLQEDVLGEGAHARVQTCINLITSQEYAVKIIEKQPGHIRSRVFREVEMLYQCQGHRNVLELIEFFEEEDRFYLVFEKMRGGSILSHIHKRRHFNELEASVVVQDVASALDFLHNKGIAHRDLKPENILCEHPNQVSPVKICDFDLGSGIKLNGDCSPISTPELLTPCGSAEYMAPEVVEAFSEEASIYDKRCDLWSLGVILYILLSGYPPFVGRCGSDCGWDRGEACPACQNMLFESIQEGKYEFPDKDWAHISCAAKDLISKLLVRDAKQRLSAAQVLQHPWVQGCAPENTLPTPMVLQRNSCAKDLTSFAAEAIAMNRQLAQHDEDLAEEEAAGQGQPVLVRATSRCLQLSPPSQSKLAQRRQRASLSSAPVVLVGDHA"}, "EPHA1": {"molecular_target": "EPHA1 (Homo sapiens, UniProt P21709)"}, "YANK2": {"molecular_target": "T1, YANK2 (Homo sapiens, UniProt Q9NY57)", "T1 construct": "gene STK32B"}, "p38-delta": {"molecular_target": "T2, p38-delta (Homo sapiens, UniProt O15264)", "T2 construct": "gene MAPK13"}, "PRKCH": {"molecular_target": "PRKCH (Homo sapiens, UniProt P24723)", "sequence (P24723 whole entry)": "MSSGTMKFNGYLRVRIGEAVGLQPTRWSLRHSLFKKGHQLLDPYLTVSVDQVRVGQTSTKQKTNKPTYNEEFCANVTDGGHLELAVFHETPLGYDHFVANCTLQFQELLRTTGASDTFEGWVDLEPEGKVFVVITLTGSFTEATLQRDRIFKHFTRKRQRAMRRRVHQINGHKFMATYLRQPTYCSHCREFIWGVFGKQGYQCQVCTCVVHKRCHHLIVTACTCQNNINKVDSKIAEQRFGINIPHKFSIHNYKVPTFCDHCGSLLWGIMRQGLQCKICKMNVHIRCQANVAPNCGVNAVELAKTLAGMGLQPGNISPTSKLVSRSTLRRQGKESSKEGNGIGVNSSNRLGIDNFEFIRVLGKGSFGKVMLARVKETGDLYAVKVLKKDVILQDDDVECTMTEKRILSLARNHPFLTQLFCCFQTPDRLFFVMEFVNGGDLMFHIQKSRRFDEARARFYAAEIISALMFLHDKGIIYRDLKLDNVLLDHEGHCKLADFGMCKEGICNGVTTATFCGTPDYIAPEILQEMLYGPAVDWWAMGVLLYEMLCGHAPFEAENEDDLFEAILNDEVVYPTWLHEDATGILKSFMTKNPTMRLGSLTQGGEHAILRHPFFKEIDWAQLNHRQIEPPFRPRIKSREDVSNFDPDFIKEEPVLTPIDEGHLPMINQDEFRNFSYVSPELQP"}, "TIE1": {"molecular_target": "TIE1 (Homo sapiens, UniProt P35590)"}, "SGK3": {"molecular_target": "SGK3 (Homo sapiens, UniProt Q96BR1)"}, "MET(Y1235D)": {"molecular_target": "MET(Y1235D) (Homo sapiens, UniProt P08581, Y1235D)", "sequence (P08581 whole entry Y1235D)": "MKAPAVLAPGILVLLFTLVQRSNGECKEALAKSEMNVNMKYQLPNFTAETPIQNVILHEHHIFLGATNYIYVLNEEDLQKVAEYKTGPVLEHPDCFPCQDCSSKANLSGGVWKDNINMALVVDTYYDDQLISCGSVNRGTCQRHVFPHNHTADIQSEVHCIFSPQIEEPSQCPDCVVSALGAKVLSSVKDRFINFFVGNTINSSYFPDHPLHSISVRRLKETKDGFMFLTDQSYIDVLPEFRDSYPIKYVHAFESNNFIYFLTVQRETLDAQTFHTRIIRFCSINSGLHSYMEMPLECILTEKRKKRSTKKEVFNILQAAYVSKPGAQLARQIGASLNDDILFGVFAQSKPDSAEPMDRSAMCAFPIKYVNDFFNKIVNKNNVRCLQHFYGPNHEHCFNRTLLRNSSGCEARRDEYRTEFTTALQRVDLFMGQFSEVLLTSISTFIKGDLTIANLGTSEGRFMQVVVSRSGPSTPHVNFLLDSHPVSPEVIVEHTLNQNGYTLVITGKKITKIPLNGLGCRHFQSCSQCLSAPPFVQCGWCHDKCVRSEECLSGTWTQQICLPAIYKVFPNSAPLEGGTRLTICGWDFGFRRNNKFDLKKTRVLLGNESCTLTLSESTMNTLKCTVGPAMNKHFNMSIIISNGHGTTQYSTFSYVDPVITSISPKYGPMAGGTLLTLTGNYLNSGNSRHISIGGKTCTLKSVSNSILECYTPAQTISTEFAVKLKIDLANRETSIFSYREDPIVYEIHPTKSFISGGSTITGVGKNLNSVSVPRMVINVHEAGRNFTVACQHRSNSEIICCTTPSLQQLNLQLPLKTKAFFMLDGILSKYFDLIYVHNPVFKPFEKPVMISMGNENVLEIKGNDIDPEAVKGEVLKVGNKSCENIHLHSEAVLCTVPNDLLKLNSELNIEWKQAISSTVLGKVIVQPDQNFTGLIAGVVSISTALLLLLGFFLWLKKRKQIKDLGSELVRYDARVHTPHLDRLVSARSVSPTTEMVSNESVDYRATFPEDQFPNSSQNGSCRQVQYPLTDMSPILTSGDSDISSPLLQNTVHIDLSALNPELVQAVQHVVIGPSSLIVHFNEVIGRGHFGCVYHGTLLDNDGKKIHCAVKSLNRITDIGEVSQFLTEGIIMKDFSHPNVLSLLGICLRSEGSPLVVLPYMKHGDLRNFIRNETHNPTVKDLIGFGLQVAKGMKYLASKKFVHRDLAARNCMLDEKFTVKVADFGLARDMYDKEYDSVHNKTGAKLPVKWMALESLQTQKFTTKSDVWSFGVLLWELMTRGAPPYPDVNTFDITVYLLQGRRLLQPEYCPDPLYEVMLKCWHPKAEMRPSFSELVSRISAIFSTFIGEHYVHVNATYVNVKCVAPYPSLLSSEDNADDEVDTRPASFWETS"}, "MKK7": {"molecular_target": "T3, MKK7 (Homo sapiens, UniProt O14733)", "T3 construct": "gene MAP2K7"}, "[1]": {"molecular_target": "T4, ABL1(F317L)-phosphorylated (Homo sapiens, UniProt P00519, F317L)", "T4 construct": "phosphorylated"}, "CAMK1G": {"molecular_target": "CAMK1G (Homo sapiens, UniProt Q96NX5)"}, "MEK2": {"molecular_target": "T5, MEK2 (Homo sapiens, UniProt P36507)", "T5 construct": "gene MAP2K2"}, "PIK3CA(Q546K)": {"molecular_target": "PIK3CA(Q546K) (Homo sapiens, UniProt P42336, Q546K)"}, "PCTK3": {"molecular_target": "T6, PCTK3 (Homo sapiens, UniProt Q07002)", "T6 construct": "gene CDK18", "T6 sequence (Q07002 whole entry)": "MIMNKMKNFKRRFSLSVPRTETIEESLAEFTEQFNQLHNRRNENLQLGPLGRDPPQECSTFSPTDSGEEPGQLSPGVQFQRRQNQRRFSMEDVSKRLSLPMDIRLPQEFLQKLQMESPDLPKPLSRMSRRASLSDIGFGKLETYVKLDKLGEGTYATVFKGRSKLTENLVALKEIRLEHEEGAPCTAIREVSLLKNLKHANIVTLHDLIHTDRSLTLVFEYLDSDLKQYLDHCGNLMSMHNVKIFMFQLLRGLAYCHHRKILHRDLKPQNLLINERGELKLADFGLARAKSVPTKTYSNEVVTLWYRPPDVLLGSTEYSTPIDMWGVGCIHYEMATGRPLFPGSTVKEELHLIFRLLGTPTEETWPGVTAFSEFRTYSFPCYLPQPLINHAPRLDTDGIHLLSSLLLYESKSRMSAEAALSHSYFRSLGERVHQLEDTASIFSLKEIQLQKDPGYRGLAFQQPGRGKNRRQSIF"}, "ACVR1B": {"molecular_target": "ACVR1B (Homo sapiens, UniProt P36896)"}, "SIK2": {"molecular_target": "SIK2 (Homo sapiens, UniProt Q9H0K1)"}, "KIT-autoinhibited": {"molecular_target": "KIT-autoinhibited (Homo sapiens, UniProt P10721)"}, "PRKD3": {"molecular_target": "PRKD3 (Homo sapiens, UniProt O94806)", "sequence (O94806 whole entry)": "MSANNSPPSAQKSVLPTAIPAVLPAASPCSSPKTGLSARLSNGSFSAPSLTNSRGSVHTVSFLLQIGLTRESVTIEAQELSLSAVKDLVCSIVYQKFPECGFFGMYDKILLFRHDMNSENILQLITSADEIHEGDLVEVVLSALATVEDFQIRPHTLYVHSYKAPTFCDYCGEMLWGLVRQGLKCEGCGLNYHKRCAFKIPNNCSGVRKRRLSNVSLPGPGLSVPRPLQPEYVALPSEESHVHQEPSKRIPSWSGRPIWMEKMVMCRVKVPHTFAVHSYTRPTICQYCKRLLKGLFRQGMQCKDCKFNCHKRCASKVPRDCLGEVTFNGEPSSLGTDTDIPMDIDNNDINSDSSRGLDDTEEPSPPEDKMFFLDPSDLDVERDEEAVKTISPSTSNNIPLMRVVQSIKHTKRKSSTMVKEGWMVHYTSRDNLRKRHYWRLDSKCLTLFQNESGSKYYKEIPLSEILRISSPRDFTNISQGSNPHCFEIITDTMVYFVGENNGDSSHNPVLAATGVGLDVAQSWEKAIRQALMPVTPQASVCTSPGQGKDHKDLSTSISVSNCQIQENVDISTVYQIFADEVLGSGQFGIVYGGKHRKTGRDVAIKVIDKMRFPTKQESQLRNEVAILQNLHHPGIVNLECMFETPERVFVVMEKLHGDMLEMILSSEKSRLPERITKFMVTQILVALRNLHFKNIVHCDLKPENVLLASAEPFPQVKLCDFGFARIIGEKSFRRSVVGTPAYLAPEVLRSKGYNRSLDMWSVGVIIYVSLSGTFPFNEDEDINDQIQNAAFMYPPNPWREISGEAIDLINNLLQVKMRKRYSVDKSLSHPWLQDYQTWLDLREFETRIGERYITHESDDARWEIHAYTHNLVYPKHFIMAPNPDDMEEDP"}, "PRKD2": {"molecular_target": "PRKD2 (Homo sapiens, UniProt Q9BZL6)"}, "MARK4": {"molecular_target": "MARK4 (Homo sapiens, UniProt Q96L34)"}, "EPHA5": {"molecular_target": "EPHA5 (Homo sapiens, UniProt P54756)"}, "STK35": {"molecular_target": "STK35 (Homo sapiens, UniProt Q8TDR2)"}, "CDK2": {"molecular_target": "CDK2 (Homo sapiens, UniProt P24941)"}, "[2]": {"molecular_target": "T7, RSK4(Kin.Dom.1-N-terminal) (Homo sapiens, UniProt Q9UK32)", "T7 construct": "gene RPS6KA6; Kin.Dom.1-N-terminal", "T7 sequence (Q9UK32 whole entry)": "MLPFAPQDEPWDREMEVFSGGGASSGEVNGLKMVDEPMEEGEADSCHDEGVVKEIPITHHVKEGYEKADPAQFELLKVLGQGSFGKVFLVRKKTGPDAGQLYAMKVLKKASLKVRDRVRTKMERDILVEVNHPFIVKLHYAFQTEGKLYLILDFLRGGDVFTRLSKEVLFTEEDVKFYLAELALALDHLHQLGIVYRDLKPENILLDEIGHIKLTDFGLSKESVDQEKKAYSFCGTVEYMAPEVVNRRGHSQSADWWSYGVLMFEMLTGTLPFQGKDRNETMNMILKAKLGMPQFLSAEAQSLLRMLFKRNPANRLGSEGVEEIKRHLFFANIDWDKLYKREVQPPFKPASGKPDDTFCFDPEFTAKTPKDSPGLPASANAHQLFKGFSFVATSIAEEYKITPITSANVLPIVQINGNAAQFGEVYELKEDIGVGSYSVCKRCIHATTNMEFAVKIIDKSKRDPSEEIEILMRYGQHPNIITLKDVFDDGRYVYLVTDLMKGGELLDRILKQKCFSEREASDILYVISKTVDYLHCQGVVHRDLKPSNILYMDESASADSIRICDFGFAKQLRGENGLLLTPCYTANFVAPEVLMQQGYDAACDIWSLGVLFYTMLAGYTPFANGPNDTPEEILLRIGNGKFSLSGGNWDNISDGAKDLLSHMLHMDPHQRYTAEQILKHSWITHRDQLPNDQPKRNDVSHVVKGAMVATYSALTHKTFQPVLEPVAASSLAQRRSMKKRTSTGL"}}}
{"smiles": "Cc1ccc(NC(=O)c2cccc(C(F)(F)F)c2)cc1Nc1cc(-c2cccnc2)nc2[nH]ccc12", "note": "[HZX-02-059]", "values": [{"measurement": "remaining binding at 1 µM", "setting": "MKNK2", "result": 80, "unit": "%"}, {"measurement": "remaining binding at 1 µM", "setting": "EPHA1", "result": 78, "unit": "%"}, {"measurement": "remaining binding at 1 µM", "setting": "YANK2", "result": 100, "unit": "%"}, {"measurement": "remaining binding at 1 µM", "setting": "p38-delta", "result": 87, "unit": "%"}, {"measurement": "remaining binding at 1 µM", "setting": "PRKCH", "result": 90, "unit": "%"}, {"measurement": "remaining binding at 1 µM", "setting": "TIE1", "result": 100, "unit": "%"}, {"measurement": "remaining binding at 1 µM", "setting": "SGK3", "result": 100, "unit": "%"}, {"measurement": "remaining binding at 1 µM", "setting": "MET(Y1235D)", "result": 95, "unit": "%"}, {"measurement": "remaining binding at 1 µM", "setting": "MKK7", "result": 95, "unit": "%"}, {"measurement": "remaining binding at 1 µM", "setting": "[1]", "result": 65, "unit": "%"}, {"measurement": "remaining binding at 1 µM", "setting": "CAMK1G", "result": 100, "unit": "%"}, {"measurement": "remaining binding at 1 µM", "setting": "MEK2", "result": 100, "unit": "%"}, {"measurement": "remaining binding at 1 µM", "setting": "PIK3CA(Q546K)", "result": 66, "unit": "%"}, {"measurement": "remaining binding at 1 µM", "setting": "PCTK3", "result": 84, "unit": "%"}, {"measurement": "remaining binding at 1 µM", "setting": "ACVR1B", "result": 72, "unit": "%"}, {"measurement": "remaining binding at 1 µM", "setting": "SIK2", "result": 87, "unit": "%"}, {"measurement": "remaining binding at 1 µM", "setting": "KIT-autoinhibited", "result": 88, "unit": "%"}, {"measurement": "remaining binding at 1 µM", "setting": "PRKD3", "result": 100, "unit": "%"}, {"measurement": "remaining binding at 1 µM", "setting": "PRKD2", "result": 92, "unit": "%"}, {"measurement": "remaining binding at 1 µM", "setting": "MARK4", "result": 100, "unit": "%"}, {"measurement": "remaining binding at 1 µM", "setting": "EPHA5", "result": 17, "unit": "%"}, {"measurement": "remaining binding at 1 µM", "setting": "STK35", "result": 80, "unit": "%"}, {"measurement": "remaining binding at 1 µM", "setting": "CDK2", "result": 96, "unit": "%"}, {"measurement": "remaining binding at 1 µM", "setting": "[2]", "result": 79, "unit": "%"}]}
